# Reference: PMC4114755, “Identification of Polyketide Inhibitors Targeting 3-Dehydroquinate Dehydratase in the Shikimate Pathway of Enterococcus faecalis” (PLoS ONE, 2014)
# T1: efDHQase (3-dehydroquinate dehydratase from Enterococcus faecalis; also DEF) (Enterococcus faecalis, UniProt P36923)
# T1 construct: gene aroD; full-length aroD in modified pET-15b, N-terminal 10xHis tag removed with thrombin; expressed in E. coli aroD- pTara; homodimer; catalytic Lys170
# T1 sequence (P36923 1-253): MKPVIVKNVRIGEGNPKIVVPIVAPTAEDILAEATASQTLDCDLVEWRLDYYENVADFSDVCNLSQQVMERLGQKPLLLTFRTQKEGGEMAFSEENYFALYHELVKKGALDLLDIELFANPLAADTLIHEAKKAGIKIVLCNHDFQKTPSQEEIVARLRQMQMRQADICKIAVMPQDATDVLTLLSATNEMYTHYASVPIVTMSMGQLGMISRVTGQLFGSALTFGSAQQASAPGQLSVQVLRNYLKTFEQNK
# Molecular target: T1, efDHQase (3-dehydroquinate dehydratase from Enterococcus faecalis; also DEF)
# Assay: efSHD-coupled NADPH oxidation assay, […] nm
# Format: biochemical
# Conditions: not given
row,Molecule,Ki [µM]
1,O=C(/C=C/c1ccc(O)c(O)c1)c1ccc(O[C@@H]2O[C@H](CO)[C@@H](O)[C@H](O)[C@H]2O)c(O)c1O [Marein],340 ± 79
2,C[C@@H]1O[C@@H](OC[C@H]2O[C@@H](Oc3c(-c4ccc(O)c(O)c4)oc4cc(O)cc(O)c4c3=O)[C@H](O)[C@@H](O)[C@@H]2O)[C@H](O)[C@H](O)[C@H]1O [Rutin],210 ± 28
3,O=c1ccc2cc(O[C@@H]3O[C@H](CO)[C@@H](O)[C@H](O)[C@H]3O)c(O)cc2o1 [Aesculine],180 ± 38
4,O=c1cc(-c2ccc(O)c(O[C@@H]3O[C@H](CO)[C@@H](O)[C@H](O)[C@H]3O)c2)oc2cc(O[C@@H]3O[C@H](CO)[C@@H](O)[C@H](O)[C@H]3O)cc(O)c12 [Luteolin-3′-7-diglucoside],89 ± 3
5,O=c1cc(-c2ccc(O)c(O)c2)oc2cc(O[C@@H]3O[C@H](CO)[C@@H](O)[C@H](O)[C@H]3O)cc(O)c12 [Luteolin-7-glucoside],69 ± 16
6,O=c1cc(-c2ccc(O)c(O)c2)oc2cc(O)c([C@@H]3O[C@H](CO)[C@@H](O)[C@H](O)[C@H]3O)c(O)c12 [Homoorientin],140 ± 11
7,O=c1ccc2ccc(O)cc2o1 [7-Hydroxycoumarin],42 ± 19
8,O=c1c(O)c(-c2ccc(O)c(O)c2)oc2c(O[C@@H]3O[C@H](CO)[C@@H](O)[C@H](O)[C@H]3O)c(O)cc(O)c12 [Gossypin],79 ± 14
9,C[C@@H]1O[C@@H](O[C@H]2[C@H](Oc3cc(O)c4c(=O)cc(-c5ccc(O)cc5)oc4c3)O[C@H](CO)[C@@H](O)[C@@H]2O)[C@H](O)[C@H](O)[C@H]1O [Rhoifolin],19 ± 9

# Substrate: O=C1C[C@@](O)(C(=O)O)C[C@@H](O)[C@@H]1O
# Assay: purified protein
# Format: biochemical, Enterococcus faecalis
# Conditions: 0.25 mM NADPH, 50 mM HEPES pH 7.5, 25°C, 10 nM efSHD as coupling enzyme
Molecule,Km [µM],kcat [s⁻¹]
"efDHQase (3-dehydroquinate dehydratase from Enterococcus faecalis; also DEF) (Enterococcus faecalis V583) (protein, full-length aroD in modified pET-15b, N-terminal 10xHis tag removed with thrombin; expressed in E. coli aroD- pTara; homodimer; catalytic Lys170) MKPVIVKNVRIGEGNPKIVVPIVAPTAEDILAEATASQTLDCDLVEWRLDYYENVADFSDVCNLSQQVMERLGQKPLLLTFRTQKEGGEMAFSEENYFALYHELVKKGALDLLDIELFANPLAADTLIHEAKKAGIKIVLCNHDFQKTPSQEEIVARLRQMQMRQADICKIAVMPQDATDVLTLLSATNEMYTHYASVPIVTMSMGQLGMISRVTGQLFGSALTFGSAQQASAPGQLSVQVLRNYLKTFEQNK",65,110
